Measurements taken from patent US20050143391A1, “Heterocyclic amides with alpha-4 integrin antagonist activity” (J. Uriach Y Compañia S.A., priority 2002, published 2005).

These molecules were tested against T1, integrin α4β1 (Homo sapiens, UniProt P05556+P13612) (assay: Inhibition of α4β1-dependent cell adhesion (Jurkat cells to peptide CS-1)). Details: adhesion of Jurkat cells to CS-1-coated plates; products preincubated with cells at 37° C. for 30 minutes; at least 6 product concentrations.
T1 construct: endogenous in cells; host or cells: Jurkat cells
Assay type: cell-based
Procedure: Inhibition of α4β1-Dependent Cell Adhesion
Inhibition of α4β1-dependent cell adhesion was assayed by evaluating the interaction between the peptide CS-1 (H-CLHGPEILDVPST-CONH2) and Jurkat cells (T lymphocyte cell line expressing activated integrin α4β1 but not integrin α4β7) after preincubation of said cells with the compounds of formula I to be tested. The peptide CS-1 was synthesized by conventional solid phase chemistry and purified by HPLC. Its identity was determined by elemental analysis and mass spectroscopy.
1.—Preparation of CS-1-Coated Plates
96-black well plates (Costar 3925) were used. 200 μL of 2% bovine serum albumin solution (BSA, Sigma α4503) was added per well and the plate was incubated for 2 hours at 37° C. The solution was discarded and the plate was washed twice with 200 μL of phosphate buffered saline solution (PBS, Gibco 14190-094) per well. Then, 200 μL of 10 μg/mL N-succinimidyl 3-(2-pyridyldithio)propionate solution (SPDP, Sigma P-3415) was added per well, and the plate was incubated at 37° C. for 30 minutes. The remaining solution was discarded and the plate was twice washed with 200 μL per well of PBS. Next, 200 μL of 25 μg/mL CS-1 peptide solution (equivalent to 5 μg/well) was added per well and the plate was incubated at 37° C. for 2 hours and then overnight at 4° C.
2.—Jurkat Cell Line: Culture and Fluorescent Labelling
Jurkat cells were kept in culture at a density comprised between 2×10^5 and 1.5×10^6 cells/mL in 1640 RPMI medium (Gibco 21875-034) enriched with 10% fetal calf serum (FCS, Gibco 10270-106).
50×10^6 cells were extracted, centrifuged (1200 rpm, 10 min, room temperature) and the medium was discarded. Cells were resuspended in 5 mL of RPMI, and 10 μL of a 1 mM solution of the fluorophore calceine.AM (Molecular Probes, C-3100) was added. The suspension was incubated for 30 min at 37° C. in the darkness, with occasional shaking. 40 mL of RPMI was added to stop the labelling and the suspension was centrifuged (1200 rpm, 10 min, room temperature). The medium was discarded, and the labelled cells were washed with 40 mL of RPMI in order to remove the unincorporated fluorescent probe. Finally, cells were resuspended in RPMI enriched with 10% FCS to obtain a 8×10^6 cells/mL suspension.
The plate previously prepared was twice washed with 200 μL per well of PBS and blocked with 200 μL of 1% BSA for at least 1 hour at room temperature.
The products to be tested were dissolved in dimethylsulfoxide at a concentration of 10 mM and dilutions thereof were prepared in RPMI medium enriched with 10% FCS. The products were preincubated with the Jurkat cells at 37° C. for 30 minutes, at a product concentration comprised between 1 nM and 10 μM, at a cell density of 4×10^6 cells/mL and at a maximal dimethylsulfoxide concentration of 0.1%.
100 μL of the resulting cell-product supsension was added per well (cellular density 4×10^5 cells/well). The product was omitted in the control wells and cells or CS-1 were omitted in the blanks. The plate was incubated for 60 min at room temperature in the-darkness, was twice washed with 200 μL per well of RPMI and then 100 μL of PBS was added. The plate was read with a fluorescence reader at an excitation wavelength of 485 nm and at an emission wavelength of 530 nm.
Maximal adhesion (100%) was determined as the average of the fluorescence intensities (FI) of the control wells, and the minimal adhesion as the average FI of the blanks. The adhesion inhibition percentage was determined using the following formula: [formula]
The results are expressed as the IC50 values (concentration producing 50% inhibition). IC50 values were calculated by testing at least 6 product concentrations and by adjusting the inhibition percentages to a dose-response curve of variable slope.

T1 sequence (P13612 34-1032): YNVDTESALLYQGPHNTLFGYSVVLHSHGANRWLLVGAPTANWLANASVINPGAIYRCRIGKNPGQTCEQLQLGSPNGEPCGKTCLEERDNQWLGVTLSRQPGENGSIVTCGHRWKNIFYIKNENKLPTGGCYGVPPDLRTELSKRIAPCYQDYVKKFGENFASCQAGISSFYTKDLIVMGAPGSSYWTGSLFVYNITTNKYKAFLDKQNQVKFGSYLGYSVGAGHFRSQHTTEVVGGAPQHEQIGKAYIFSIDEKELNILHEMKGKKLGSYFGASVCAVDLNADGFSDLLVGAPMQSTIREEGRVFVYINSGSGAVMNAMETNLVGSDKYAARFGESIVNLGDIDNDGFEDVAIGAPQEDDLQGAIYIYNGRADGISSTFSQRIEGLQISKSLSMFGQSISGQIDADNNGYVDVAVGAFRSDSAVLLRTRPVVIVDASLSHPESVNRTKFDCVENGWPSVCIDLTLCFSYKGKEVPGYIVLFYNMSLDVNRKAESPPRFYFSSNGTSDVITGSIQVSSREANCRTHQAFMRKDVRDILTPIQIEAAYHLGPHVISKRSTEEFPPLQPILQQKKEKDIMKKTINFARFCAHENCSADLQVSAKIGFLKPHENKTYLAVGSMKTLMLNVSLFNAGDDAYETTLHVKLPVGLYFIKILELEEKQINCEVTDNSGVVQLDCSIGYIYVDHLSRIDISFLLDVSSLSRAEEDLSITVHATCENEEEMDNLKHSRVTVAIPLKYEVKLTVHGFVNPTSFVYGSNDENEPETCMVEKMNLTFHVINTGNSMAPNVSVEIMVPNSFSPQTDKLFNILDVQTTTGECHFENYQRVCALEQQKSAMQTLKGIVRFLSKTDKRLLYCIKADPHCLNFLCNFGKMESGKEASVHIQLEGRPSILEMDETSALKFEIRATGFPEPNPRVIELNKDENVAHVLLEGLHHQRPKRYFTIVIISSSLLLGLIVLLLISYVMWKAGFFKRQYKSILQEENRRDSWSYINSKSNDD
T1 sequence (P05556 21-798): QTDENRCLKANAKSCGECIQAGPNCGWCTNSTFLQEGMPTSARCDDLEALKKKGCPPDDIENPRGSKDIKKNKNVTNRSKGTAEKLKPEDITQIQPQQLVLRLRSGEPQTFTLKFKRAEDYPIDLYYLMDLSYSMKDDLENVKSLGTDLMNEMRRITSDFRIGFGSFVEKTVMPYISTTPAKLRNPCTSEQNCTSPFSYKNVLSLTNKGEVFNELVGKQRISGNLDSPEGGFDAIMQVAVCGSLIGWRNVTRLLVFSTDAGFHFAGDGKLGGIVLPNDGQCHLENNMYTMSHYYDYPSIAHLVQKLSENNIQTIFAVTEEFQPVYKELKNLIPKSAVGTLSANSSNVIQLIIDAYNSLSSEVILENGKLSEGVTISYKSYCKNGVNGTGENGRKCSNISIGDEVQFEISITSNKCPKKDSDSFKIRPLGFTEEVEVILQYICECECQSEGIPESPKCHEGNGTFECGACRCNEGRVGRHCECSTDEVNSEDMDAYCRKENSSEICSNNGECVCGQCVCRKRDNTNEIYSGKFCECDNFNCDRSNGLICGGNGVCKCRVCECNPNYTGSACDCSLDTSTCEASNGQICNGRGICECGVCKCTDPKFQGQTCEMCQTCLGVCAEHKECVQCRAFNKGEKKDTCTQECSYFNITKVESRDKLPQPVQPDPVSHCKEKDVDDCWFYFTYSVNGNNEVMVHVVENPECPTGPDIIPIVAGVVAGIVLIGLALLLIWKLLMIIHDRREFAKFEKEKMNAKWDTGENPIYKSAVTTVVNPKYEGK

IC50	Molecule
49.8 nM	CCCc1nc2cnccc2n1CC1CCN(C(=O)CC[C@H](NC(=O)[C@@H]2CCCN2S(=O)(=O)c2cc(Cl)cc(Cl)c2)C(=O)O)CC1 [Example 119, (2S)-2-[1-(3,5-Dichlorophenylsulfonyl)-L-prolylamino]-5-oxo-5-[4-(2-propylimidazo[4,5-c]pyridin-1-ylmethyl)piperidin-1-yl]pentanoic Acid]
4.6 nM	CCc1nc2cnccc2n1CC1CCN(C(=O)NC[C@H](NC(=O)[C@@H]2CCCN2S(=O)(=O)c2cc(Cl)cc(Cl)c2)C(=O)O)CC1 [Example 123, Lithium (2S)-2-[1-(3,5-dichlorophenylsulfonyl)-L-prolyl]amino-3-[[4-(2-ethylimidazo[4,5-c]pyridin-1-ylmethyl)piperidin-1-ylcarbonyl]amino]propionate]
33 nM	(2S)-2-[1-(3,5-Dichlorophenylsulfonyl)-L-prolylamino]-5-oxo-5-[4-(1-pyrrolylmethyl)piperidin-1-yl]pentanoic Acid [Example 81]
